According to publication PMC6511888, “Synthesis, Biological Evaluation, and Molecular Modeling Studies of New Thiadiazole Derivatives as Potent P2X7 Receptor Inhibitors” (Frontiers in Chemistry, 2019):
Values belong to the compound of their own block, whether it stands above or below them.

How the values were obtained:
Type in all cases: cell-based
P2Y2R = biological target: T1, P2Y2R (Mus musculus, UniProt P35383); assay: 2-S-UTP-activated [Ca2+]i shifts in mouse peritoneal macrophages; details: 1 μM
T1 construct: endogenous in cells; host or cells: mouse peritoneal macrophages
Procedure: (§1) Mouse peritoneal macrophages, PC12 cells, J774 cells, and HEPG2 cells were analyzed by fluorescence microscopy to measure the intracellular Ca^2+ concentrations ([Ca^2+]i). Cells were incubated with 2 μM Fura-2-AM (Molecular Probes) for 30 min, and the [Ca^2+]i mobilization was measured in the F340/F380 ratios with a FlexStation 3 multimode microplate reader (Molecular Devices). Cells were plated in translucent 96-well plates (BD Falcon) for 15 min and then washed and incubated in a saline solution with 150 NaCl, 5 KCl, 1 MgCl2, 1 CaCl2, and 10 HEPES (pH 7.4) for 30 min before measurements of [Ca^2+]i. The Ca^2+ influx was induced by stimulating cells with P2 receptor agonists. P2 receptor antagonists were added 10 min before P2 receptor agonist addition. […] Ionomycin was considered a positive control, and the other recordings were normalized in relation to the AUC.

P2X4R = biological target: T2, P2X4R (Rattus norvegicus, UniProt P51577); assay: ATP-induced [Ca2+]i shifts potentiated by ivermectin in NR8383 alveolar macrophage cell line; details: 1 μM; NR8383 cells
T2 construct: endogenous in cells; host or cells: NR8383 rat alveolar macrophage cell line
T2 sequence (P51577 1-388): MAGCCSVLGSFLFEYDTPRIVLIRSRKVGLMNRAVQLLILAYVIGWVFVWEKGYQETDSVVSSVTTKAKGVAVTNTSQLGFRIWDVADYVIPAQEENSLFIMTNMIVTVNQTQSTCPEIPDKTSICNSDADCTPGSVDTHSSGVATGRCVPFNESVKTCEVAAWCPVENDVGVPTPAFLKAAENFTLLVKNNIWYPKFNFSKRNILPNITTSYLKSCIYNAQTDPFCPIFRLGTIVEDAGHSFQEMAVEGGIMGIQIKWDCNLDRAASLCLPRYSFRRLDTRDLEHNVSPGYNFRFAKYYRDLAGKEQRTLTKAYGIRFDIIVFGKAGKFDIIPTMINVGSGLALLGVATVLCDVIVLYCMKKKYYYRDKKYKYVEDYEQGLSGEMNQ

P2Y1R = biological target: T3, P2Y1R (Mus musculus, UniProt P49650); assay: ADP-induced [Ca2+]i shifts in mouse peritoneal macrophages; details: 1 μM
T3 construct: endogenous in cells; host or cells: mouse peritoneal macrophages
Procedure: as §1

P2X1R = biological target: T4, P2X1R (Mus musculus, UniProt P51576); assay: β,γ-meATP-induced intracellular Ca2+ mobilization in J774 cells; details: 10 μM
T4 construct: endogenous in cells; host or cells: J774 cells
T4 sequence (P51576 1-399): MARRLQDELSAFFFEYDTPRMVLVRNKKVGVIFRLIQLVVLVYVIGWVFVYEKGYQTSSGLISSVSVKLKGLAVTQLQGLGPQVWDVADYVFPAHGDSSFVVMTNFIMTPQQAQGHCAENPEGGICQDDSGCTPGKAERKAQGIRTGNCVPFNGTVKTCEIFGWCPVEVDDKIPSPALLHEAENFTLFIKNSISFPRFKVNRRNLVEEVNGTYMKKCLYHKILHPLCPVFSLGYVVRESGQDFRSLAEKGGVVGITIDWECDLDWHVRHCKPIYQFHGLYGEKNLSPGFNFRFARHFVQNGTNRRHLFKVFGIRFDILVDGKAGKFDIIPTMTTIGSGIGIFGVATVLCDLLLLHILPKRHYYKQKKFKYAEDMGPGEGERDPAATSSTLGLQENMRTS
Procedure: as §1

P2X2R = biological target: T5, P2X2R (Rattus norvegicus, UniProt P49653); assay: ATP-induced [Ca2+]i shifts in PC12 cells; details: 1 μM
T5 construct: endogenous in cells; host or cells: PC12 cells
T5 sequence (P49653 1-472): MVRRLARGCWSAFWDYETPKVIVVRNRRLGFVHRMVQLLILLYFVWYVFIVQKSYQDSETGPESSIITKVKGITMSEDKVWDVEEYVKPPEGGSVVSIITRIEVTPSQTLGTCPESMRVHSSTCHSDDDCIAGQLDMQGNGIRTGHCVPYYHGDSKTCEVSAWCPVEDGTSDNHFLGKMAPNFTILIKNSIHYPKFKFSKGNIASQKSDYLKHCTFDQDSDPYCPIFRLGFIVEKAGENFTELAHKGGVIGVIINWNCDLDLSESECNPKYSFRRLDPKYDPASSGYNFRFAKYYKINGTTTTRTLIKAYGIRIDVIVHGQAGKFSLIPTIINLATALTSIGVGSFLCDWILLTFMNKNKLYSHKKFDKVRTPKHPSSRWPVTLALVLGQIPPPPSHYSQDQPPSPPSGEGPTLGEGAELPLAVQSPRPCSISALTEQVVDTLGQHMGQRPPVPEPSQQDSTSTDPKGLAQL
Procedure: as §1

P2Y14R = biological target: T6, P2Y14R (Mus musculus, UniProt Q9ESG6); assay: UDP-glucose-activated [Ca2+]i shifts in mouse peritoneal macrophages; details: 1 μM
T6 construct: endogenous in cells; host or cells: mouse peritoneal macrophages
T6 sequence (Q9ESG6 1-338): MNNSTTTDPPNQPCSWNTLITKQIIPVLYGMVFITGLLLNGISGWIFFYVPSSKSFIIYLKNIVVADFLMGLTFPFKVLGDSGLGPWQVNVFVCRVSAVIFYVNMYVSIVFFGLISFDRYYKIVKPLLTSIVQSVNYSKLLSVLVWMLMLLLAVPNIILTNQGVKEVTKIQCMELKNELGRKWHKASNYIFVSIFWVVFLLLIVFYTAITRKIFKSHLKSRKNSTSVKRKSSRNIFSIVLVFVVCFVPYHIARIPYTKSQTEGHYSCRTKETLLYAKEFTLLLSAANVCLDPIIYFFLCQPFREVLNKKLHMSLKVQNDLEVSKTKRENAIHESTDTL
Procedure: as §1

P2X3R = assay: α,β-meATP-induced [Ca2+]i shift; details: 10 μM
Procedure: as §1

T1 sequence (P35383 whole entry): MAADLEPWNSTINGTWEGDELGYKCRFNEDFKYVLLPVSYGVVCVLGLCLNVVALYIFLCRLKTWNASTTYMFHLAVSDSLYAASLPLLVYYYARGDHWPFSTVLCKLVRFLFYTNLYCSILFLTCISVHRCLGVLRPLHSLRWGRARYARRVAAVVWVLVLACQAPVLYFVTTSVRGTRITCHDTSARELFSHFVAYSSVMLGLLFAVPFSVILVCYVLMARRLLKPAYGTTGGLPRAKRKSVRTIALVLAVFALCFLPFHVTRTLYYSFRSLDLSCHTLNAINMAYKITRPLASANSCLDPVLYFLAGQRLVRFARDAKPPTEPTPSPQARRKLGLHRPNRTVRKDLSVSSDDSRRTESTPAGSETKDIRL
T3 sequence (P49650 whole entry): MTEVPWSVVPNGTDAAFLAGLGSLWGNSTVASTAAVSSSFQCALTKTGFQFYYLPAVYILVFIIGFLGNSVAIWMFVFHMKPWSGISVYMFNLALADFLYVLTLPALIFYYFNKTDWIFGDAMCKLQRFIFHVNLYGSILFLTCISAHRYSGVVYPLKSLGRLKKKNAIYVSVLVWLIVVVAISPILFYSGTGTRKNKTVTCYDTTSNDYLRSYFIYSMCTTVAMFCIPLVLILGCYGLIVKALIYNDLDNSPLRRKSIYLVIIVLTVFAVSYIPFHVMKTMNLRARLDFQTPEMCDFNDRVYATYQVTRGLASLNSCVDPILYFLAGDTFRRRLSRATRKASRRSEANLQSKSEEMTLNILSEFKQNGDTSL

Effect on 2-S-UTP-activated [Ca2+]i shifts (P2Y2R): inhibited
SMILES: Cc1ccc2c(c1)C=Cc1cc(C)ccc1C2c1cn(Cc2ccc(C(=O)Nc3nn[nH]n3)o2)c(=O)[nH]c1=S [AR-C 118925XX]

SMILES: O=C1CN=C(c2cccc(Br)c2)c2oc3ccccc3c2N1 [Compound 5BDBD]
Effect on ATP-induced [Ca2+]i shifts potentiated by 1 μM ivermectin (P2X4R): inhibited

SMILES: CNc1ncnc2c1ncn2[C@H]1C[C@H](OP(=O)(O)O)[C@@H](COP(=O)(O)O)O1 [MRS 2179]
Effect on ADP-induced [Ca2+]i shifts (P2Y1R): inhibited

Effect on β,γ-meATP-induced intracellular Ca2+ mobilization (P2X1R): inhibited
SMILES: O=C(Nc1cccc(C(=O)Nc2ccc(S(=O)(=O)O)c3cc(S(=O)(=O)O)cc(S(=O)(=O)O)c23)c1)Nc1cccc(C(=O)Nc2ccc(S(=O)(=O)O)c3cc(S(=O)(=O)O)cc(S(=O)(=O)O)c23)c1 [NF023, reference compound]

Effect on ATP-induced [Ca2+]i shifts (P2X2R): inhibited
SMILES: COc1cc(S(=O)(=O)O)cc2cc(S(=O)(=O)O)c(NC(=O)c3ccc(C)c(NC(=O)c4cccc(NC(=O)Nc5cccc(C(=O)Nc6cc(C(=O)Nc7cc8c(OC)cc(S(=O)(=O)O)cc8cc7S(=O)(=O)O)ccc6C)c5)c4)c3)cc12 [NF770]

Effect on UDP-glucose-activated [Ca2+]i shifts (P2Y14R): inhibited
SMILES: O=C(O)c1cc(-c2ccc(C3CCNCC3)cc2)c2ccc(-c3ccc(C(F)(F)F)cc3)cc2c1 [PPNT]

SMILES: Nc1ncnc2c1ncn2[C@@H]1O[C@H](COP(=O)(O)OP(=O)(O)OP(=O)(O)O)[C@H]2OC3(O[C@H]21)C([N+](=O)[O-])=CC(=[N+]([O-])[O-])C=C3[N+](=O)[O-] (stereo partly shown) [TNP-ATP, reference compound]
Effect on activity of P2X3R agonist α,β-meATP (P2X3R): inhibited
